Measured values taken from PMC7407272, “Induction of Lysosome Membrane Permeabilization as a Therapeutic Strategy to Target Pancreatic Cancer Stem Cells” (Cancers, 2020).

Legend:
Assay in all cases: KINOMEscan
Assay type in all cases: binding
Details in all cases: read-out: % Ctrl
AKT1 = molecular target: T1, AKT1 (Homo sapiens, UniProt P31749)
T1 construct: purchased DiscoveRx KINOMEscan

TYK2(JH2D.-pseudoK.) = molecular target: T2, TYK2(JH2D.-pseudoK.) (Homo sapiens, UniProt P29597)
T2 construct: TYK2(JH2D.-pseudoK.); purchased DiscoveRx KINOMEscan

PDPK1 = molecular target: T3, PDPK1 (Homo sapiens, UniProt O15530)
T3 construct: purchased DiscoveRx KINOMEscan

ABL1(H396P)-P = molecular target: T4, ABL1(H396P)-P (Homo sapiens, UniProt P00519, H396P)
T4 construct: purchased DiscoveRx KINOMEscan

JAK1(JH2D.-pseudoK.) = molecular target: T5, JAK1(JH2D.-pseudoK.) (Homo sapiens, UniProt P23458)
T5 construct: JAK1(JH2D.-pseudoK.); purchased DiscoveRx KINOMEscan
T5 sequence (P23458 583-855 limits assumed): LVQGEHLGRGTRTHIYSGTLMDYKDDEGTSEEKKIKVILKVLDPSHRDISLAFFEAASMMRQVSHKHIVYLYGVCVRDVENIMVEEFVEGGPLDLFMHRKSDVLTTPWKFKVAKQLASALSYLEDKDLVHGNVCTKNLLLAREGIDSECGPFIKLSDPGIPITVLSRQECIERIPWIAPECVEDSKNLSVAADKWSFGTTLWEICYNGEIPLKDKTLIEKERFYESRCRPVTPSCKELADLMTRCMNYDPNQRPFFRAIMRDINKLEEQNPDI

CAMK1D = molecular target: T6, CAMK1D (Homo sapiens, UniProt Q8IU85)
T6 construct: purchased DiscoveRx KINOMEscan

FLT3(D835Y) = molecular target: T7, FLT3(D835Y) (Homo sapiens, UniProt P36888, D835Y)
T7 construct: purchased DiscoveRx KINOMEscan

PIK3C2G = molecular target: T8, PIK3C2G (Homo sapiens, UniProt O75747)
T8 construct: purchased DiscoveRx KINOMEscan

PAK7 = molecular target: T9, PAK7 (Homo sapiens, UniProt Q9P286)
T9 construct: purchased DiscoveRx KINOMEscan

BIKE = molecular target: T10, BIKE (Homo sapiens, UniProt Q9NSY1)
T10 construct: purchased DiscoveRx KINOMEscan

MAPKAPK5 = molecular target: T11, MAPKAPK5 (Homo sapiens, UniProt Q8IW41)
T11 construct: purchased DiscoveRx KINOMEscan

KIT(V559D,V654A) = molecular target: T12, KIT(V559D,V654A) (Homo sapiens, UniProt P10721, V559D/V654A)
T12 construct: purchased DiscoveRx KINOMEscan

DAPK1 = molecular target: T13, DAPK1 (Homo sapiens, UniProt P53355)
T13 construct: purchased DiscoveRx KINOMEscan

CDK5 = molecular target: T14, CDK5 (Homo sapiens, UniProt Q00535)
T14 construct: purchased DiscoveRx KINOMEscan

YANK1 = molecular target: T15, YANK1 (Homo sapiens, UniProt Q8WU08)
T15 construct: purchased DiscoveRx KINOMEscan
T15 sequence (Q8WU08 whole entry): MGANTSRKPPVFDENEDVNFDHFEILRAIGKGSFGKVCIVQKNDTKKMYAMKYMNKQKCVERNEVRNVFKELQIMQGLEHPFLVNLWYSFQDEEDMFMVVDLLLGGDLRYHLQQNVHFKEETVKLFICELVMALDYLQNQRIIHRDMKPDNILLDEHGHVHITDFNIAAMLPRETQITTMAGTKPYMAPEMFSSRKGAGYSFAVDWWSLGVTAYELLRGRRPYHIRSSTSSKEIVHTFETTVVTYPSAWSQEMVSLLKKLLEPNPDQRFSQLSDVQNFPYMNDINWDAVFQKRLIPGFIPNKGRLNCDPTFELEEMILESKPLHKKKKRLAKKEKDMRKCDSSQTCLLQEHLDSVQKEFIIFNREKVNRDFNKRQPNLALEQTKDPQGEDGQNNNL

SNARK = molecular target: T16, SNARK (Homo sapiens, UniProt Q9H093)
T16 construct: purchased DiscoveRx KINOMEscan

LIMK2 = molecular target: T17, LIMK2 (Homo sapiens, UniProt P53671)
T17 construct: purchased DiscoveRx KINOMEscan

PFTAIRE2 = molecular target: T18, PFTAIRE2 (Homo sapiens, UniProt Q96Q40)
T18 construct: purchased DiscoveRx KINOMEscan

EPHA4 = molecular target: T19, EPHA4 (Homo sapiens, UniProt P54764)
T19 construct: purchased DiscoveRx KINOMEscan

MST1 = molecular target: T20, MST1 (Homo sapiens, UniProt Q13043)
T20 construct: purchased DiscoveRx KINOMEscan

MERTK = molecular target: T21, MERTK (Homo sapiens, UniProt Q12866)
T21 construct: purchased DiscoveRx KINOMEscan
T21 sequence (Q12866 21-999): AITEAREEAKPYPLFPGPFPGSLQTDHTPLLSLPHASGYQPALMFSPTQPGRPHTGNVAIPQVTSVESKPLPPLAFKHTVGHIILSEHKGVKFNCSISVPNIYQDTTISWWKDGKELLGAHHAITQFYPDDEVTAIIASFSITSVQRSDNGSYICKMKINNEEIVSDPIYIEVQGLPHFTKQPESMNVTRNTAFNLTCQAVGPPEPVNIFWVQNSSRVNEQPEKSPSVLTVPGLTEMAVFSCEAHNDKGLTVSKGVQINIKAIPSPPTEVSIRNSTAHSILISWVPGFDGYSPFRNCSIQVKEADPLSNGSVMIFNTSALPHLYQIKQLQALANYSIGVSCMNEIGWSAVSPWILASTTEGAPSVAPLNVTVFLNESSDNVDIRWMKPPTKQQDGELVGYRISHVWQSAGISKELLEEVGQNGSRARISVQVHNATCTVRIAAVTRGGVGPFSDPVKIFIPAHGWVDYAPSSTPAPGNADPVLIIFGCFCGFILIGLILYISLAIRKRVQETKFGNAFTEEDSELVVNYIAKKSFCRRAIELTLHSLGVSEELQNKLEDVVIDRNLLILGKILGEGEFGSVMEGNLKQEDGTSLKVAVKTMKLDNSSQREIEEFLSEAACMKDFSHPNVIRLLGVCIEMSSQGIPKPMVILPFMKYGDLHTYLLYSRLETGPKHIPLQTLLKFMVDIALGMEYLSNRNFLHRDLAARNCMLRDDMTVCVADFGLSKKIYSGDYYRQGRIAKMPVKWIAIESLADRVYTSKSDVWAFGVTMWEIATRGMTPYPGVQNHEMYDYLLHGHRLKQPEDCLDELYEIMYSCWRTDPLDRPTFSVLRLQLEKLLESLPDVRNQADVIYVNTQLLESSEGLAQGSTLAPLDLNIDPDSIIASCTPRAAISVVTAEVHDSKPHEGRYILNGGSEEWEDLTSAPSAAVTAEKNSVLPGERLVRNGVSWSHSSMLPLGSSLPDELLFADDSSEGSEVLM

PLK4 = molecular target: T22, PLK4 (Homo sapiens, UniProt O00444)
T22 construct: purchased DiscoveRx KINOMEscan

ZAK = molecular target: T23, ZAK (Homo sapiens, UniProt Q9NYL2)
T23 construct: purchased DiscoveRx KINOMEscan

CDK4 = molecular target: T24, CDK4 (Homo sapiens, UniProt P11802)
T24 construct: purchased DiscoveRx KINOMEscan

PIKFYVE = molecular target: T25, PIKFYVE (Homo sapiens, UniProt Q9Y2I7)
T25 construct: purchased DiscoveRx KINOMEscan

IKK-beta = molecular target: T26, IKK-beta (Homo sapiens, UniProt O14920)
T26 construct: purchased DiscoveRx KINOMEscan

PRKCE = molecular target: T27, PRKCE (Homo sapiens, UniProt Q02156)
T27 construct: purchased DiscoveRx KINOMEscan

FER = molecular target: T28, FER (Homo sapiens, UniProt P16591)
T28 construct: purchased DiscoveRx KINOMEscan

ADCK4 = molecular target: T29, ADCK4 (Homo sapiens, UniProt Q96D53)
T29 construct: purchased DiscoveRx KINOMEscan
T29 sequence (Q96D53 whole entry): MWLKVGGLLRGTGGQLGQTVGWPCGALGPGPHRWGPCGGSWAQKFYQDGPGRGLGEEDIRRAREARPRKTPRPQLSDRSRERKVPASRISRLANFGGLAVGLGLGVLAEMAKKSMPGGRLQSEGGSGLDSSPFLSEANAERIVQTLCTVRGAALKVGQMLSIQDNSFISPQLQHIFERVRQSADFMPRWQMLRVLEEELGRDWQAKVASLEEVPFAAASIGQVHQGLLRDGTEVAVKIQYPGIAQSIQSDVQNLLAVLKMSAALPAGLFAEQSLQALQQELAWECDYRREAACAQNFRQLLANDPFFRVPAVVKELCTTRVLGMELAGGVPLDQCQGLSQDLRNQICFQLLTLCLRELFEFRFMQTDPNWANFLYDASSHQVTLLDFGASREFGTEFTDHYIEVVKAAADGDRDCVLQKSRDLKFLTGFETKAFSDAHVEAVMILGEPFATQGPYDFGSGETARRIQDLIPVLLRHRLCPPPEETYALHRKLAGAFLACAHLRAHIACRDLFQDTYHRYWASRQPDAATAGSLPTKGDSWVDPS

TIE1 = molecular target: T30, TIE1 (Homo sapiens, UniProt P35590)
T30 construct: purchased DiscoveRx KINOMEscan

RSK4(KD1-N-t.) = molecular target: T31, RSK4(KD1-N-t.) (Homo sapiens, UniProt Q9UK32)
T31 construct: RSK4(KD1-N-t.); purchased DiscoveRx KINOMEscan
T31 sequence (Q9UK32 1-400 limits assumed): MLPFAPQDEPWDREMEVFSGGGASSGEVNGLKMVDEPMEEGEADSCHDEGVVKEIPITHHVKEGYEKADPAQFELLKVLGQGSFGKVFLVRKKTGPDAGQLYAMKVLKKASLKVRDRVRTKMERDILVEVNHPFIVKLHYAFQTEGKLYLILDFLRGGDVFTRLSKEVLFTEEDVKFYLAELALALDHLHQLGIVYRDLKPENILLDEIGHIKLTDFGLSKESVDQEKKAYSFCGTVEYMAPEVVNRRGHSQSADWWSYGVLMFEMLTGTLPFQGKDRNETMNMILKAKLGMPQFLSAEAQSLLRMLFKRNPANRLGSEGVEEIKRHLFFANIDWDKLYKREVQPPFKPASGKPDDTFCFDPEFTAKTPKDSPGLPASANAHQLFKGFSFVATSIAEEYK

SRPK3 = molecular target: T32, SRPK3 (Homo sapiens, UniProt Q9UPE1)
T32 construct: purchased DiscoveRx KINOMEscan

RSK4(KD2-C-t.) = molecular target: T33, RSK4(KD2-C-t.) (Homo sapiens, UniProt Q9UK32)
T33 construct: RSK4(KD2-C-t.); purchased DiscoveRx KINOMEscan

EPHA6 = molecular target: T34, EPHA6 (Homo sapiens, UniProt Q9UF33)
T34 construct: purchased DiscoveRx KINOMEscan
T34 sequence (Q9UF33 23-1036): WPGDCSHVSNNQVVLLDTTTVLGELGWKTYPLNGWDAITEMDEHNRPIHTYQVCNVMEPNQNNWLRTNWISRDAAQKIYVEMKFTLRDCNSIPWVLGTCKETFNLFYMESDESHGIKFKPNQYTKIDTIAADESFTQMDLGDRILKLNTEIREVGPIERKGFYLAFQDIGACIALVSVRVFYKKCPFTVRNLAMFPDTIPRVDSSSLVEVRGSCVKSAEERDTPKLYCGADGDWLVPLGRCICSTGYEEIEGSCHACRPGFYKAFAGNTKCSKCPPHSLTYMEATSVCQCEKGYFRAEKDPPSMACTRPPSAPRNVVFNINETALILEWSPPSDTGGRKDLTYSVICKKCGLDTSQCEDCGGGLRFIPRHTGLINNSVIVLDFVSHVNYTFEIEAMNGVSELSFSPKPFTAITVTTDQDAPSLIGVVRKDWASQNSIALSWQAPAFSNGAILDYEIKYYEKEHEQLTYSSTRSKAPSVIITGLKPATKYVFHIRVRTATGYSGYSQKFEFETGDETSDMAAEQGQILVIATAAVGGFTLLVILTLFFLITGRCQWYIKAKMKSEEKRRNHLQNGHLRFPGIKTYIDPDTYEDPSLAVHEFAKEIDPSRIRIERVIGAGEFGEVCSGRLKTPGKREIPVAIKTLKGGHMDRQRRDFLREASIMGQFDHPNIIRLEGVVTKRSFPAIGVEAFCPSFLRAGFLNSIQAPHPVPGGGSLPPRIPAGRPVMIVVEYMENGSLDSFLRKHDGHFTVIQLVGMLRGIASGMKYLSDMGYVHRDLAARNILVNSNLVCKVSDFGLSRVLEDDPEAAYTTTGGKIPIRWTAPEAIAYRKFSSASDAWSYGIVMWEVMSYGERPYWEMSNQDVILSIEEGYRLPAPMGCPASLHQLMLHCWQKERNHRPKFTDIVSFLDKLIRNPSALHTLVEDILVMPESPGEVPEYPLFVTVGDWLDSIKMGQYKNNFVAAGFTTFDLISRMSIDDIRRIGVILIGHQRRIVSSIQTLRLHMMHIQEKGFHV

MET(Y1235D) = molecular target: T35, MET(Y1235D) (Homo sapiens, UniProt P08581, Y1235D)
T35 construct: purchased DiscoveRx KINOMEscan

AKT2 = molecular target: T36, AKT2 (Homo sapiens, UniProt P31751)
T36 construct: purchased DiscoveRx KINOMEscan
T36 sequence (P31751 whole entry): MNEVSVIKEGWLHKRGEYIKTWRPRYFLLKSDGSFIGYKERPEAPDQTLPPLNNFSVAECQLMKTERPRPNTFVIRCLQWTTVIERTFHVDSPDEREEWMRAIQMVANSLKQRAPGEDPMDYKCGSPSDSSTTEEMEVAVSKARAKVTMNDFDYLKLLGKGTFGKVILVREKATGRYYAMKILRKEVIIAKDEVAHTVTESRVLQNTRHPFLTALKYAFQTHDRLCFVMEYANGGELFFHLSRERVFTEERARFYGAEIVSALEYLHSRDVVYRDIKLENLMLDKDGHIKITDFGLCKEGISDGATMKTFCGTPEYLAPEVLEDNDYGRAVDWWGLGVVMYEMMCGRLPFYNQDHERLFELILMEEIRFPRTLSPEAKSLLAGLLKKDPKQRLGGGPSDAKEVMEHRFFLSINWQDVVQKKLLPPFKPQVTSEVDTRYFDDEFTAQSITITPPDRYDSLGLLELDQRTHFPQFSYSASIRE

ERK8 = molecular target: T37, ERK8 (Homo sapiens, UniProt Q8TD08)
T37 construct: purchased DiscoveRx KINOMEscan

MAPKAPK2 = molecular target: T38, MAPKAPK2 (Homo sapiens, UniProt P49137)
T38 construct: purchased DiscoveRx KINOMEscan
T38 sequence (P49137 whole entry): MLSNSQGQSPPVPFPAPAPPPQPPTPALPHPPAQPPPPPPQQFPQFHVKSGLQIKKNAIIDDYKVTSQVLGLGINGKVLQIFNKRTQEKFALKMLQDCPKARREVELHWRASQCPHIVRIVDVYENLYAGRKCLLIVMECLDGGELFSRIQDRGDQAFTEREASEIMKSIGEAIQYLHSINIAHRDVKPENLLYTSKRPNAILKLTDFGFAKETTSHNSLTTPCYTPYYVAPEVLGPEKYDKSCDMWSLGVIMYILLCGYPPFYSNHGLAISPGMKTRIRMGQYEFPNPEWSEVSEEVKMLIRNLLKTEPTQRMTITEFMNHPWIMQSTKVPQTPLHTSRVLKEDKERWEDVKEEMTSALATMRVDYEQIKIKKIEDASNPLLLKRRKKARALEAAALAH

DYRK1B = molecular target: T39, DYRK1B (Homo sapiens, UniProt Q9Y463)
T39 construct: purchased DiscoveRx KINOMEscan

EPHB2 = molecular target: T40, EPHB2 (Homo sapiens, UniProt P29323)
T40 construct: purchased DiscoveRx KINOMEscan

NDR2 = molecular target: T41, NDR2 (Homo sapiens, UniProt Q9Y2H1)
T41 construct: purchased DiscoveRx KINOMEscan

MST3 = molecular target: T42, MST3 (Homo sapiens, UniProt Q9Y6E0)
T42 construct: purchased DiscoveRx KINOMEscan
T42 sequence (Q9Y6E0 whole entry): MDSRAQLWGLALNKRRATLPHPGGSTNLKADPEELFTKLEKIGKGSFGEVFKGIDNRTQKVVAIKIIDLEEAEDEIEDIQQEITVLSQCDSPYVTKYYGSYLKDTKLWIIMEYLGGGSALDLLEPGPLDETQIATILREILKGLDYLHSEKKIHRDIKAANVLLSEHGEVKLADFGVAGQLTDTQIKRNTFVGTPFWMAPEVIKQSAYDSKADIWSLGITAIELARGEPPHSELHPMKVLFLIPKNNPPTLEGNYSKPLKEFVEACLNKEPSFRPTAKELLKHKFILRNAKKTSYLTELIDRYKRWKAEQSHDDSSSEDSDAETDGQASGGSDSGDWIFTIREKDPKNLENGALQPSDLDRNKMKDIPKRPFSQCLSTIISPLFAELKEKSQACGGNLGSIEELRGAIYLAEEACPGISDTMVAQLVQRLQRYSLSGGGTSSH

How did the remaining binding at 1 µM (AKT1) turn out when CN1CCC(CNc2ccc3ncc(C(=O)Nc4cccc(OC(F)(F)F)c4)n3n2)CC1 [Cpd 2] was run?
Its remaining binding at 1 µM is 100%.

And the remaining binding at 1 µM (TYK2(JH2D.-pseudoK.))?
The remaining binding at 1 µM was 12%.

What about the remaining binding at 1 µM (PDPK1) of the same compound?
Its remaining binding at 1 µM is 100%.

What about the remaining binding at 1 µM (ABL1(H396P)-P) of the same compound?
Its remaining binding at 1 µM is 100%.

And the remaining binding at 1 µM (JAK1(JH2D.-pseudoK.))?
Its remaining binding at 1 µM is 100%.

And the remaining binding at 1 µM (CAMK1D)?
Its remaining binding at 1 µM is 94%.

And the remaining binding at 1 µM (FLT3(D835Y))?
Its remaining binding at 1 µM is 65%.

What about the remaining binding at 1 µM (PIK3C2G) of the same compound?
Its remaining binding at 1 µM is 59%.

And the remaining binding at 1 µM (PAK7)?
The remaining binding at 1 µM was 90%.

And the remaining binding at 1 µM (BIKE)?
The remaining binding at 1 µM was 83%.

What about the remaining binding at 1 µM (MAPKAPK5) of the same compound?
Its remaining binding at 1 µM is 100%.

And the remaining binding at 1 µM (KIT(V559D,V654A))?
Its remaining binding at 1 µM is 91%.

And the remaining binding at 1 µM (DAPK1)?
The remaining binding at 1 µM was 82%.

And the remaining binding at 1 µM (CDK5)?
Its remaining binding at 1 µM is 100%.

What about the remaining binding at 1 µM (YANK1) of the same compound?
Its remaining binding at 1 µM is 100%.

What about the remaining binding at 1 µM (SNARK) of the same compound?
The remaining binding at 1 µM was 89%.

What about the remaining binding at 1 µM (LIMK2) of the same compound?
Its remaining binding at 1 µM is 99%.

What about the remaining binding at 1 µM (PFTAIRE2) of the same compound?
The remaining binding at 1 µM was 92%.

And the remaining binding at 1 µM (EPHA4)?
The remaining binding at 1 µM was 88%.

And the remaining binding at 1 µM (MST1)?
The remaining binding at 1 µM was 100%.

What about the remaining binding at 1 µM (MERTK) of the same compound?
The remaining binding at 1 µM was 88%.

What about the remaining binding at 1 µM (PLK4) of the same compound?
Its remaining binding at 1 µM is 82%.

What about the remaining binding at 1 µM (ZAK) of the same compound?
Its remaining binding at 1 µM is 96%.

And the remaining binding at 1 µM (CDK4)?
Its remaining binding at 1 µM is 100%.

And the remaining binding at 1 µM (PIKFYVE)?
The remaining binding at 1 µM was 45%.

And the remaining binding at 1 µM (IKK-beta)?
The remaining binding at 1 µM was 100%.

And the remaining binding at 1 µM (PRKCE)?
The remaining binding at 1 µM was 70%.

What about the remaining binding at 1 µM (FER) of the same compound?
Its remaining binding at 1 µM is 98%.

What about the remaining binding at 1 µM (ADCK4) of the same compound?
Its remaining binding at 1 µM is 99%.

What about the remaining binding at 1 µM (TIE1) of the same compound?
Its remaining binding at 1 µM is 90%.

And the remaining binding at 1 µM (RSK4(KD1-N-t.))?
Its remaining binding at 1 µM is 92%.

And the remaining binding at 1 µM (SRPK3)?
Its remaining binding at 1 µM is 77%.

What about the remaining binding at 1 µM (RSK4(KD2-C-t.)) of the same compound?
The remaining binding at 1 µM was 84%.

And the remaining binding at 1 µM (EPHA6)?
Its remaining binding at 1 µM is 86%.

What about the remaining binding at 1 µM (MET(Y1235D)) of the same compound?
Its remaining binding at 1 µM is 93%.

What about the remaining binding at 1 µM (AKT2) of the same compound?
Its remaining binding at 1 µM is 100%.

What about the remaining binding at 1 µM (ERK8) of the same compound?
Its remaining binding at 1 µM is 96%.

What about the remaining binding at 1 µM (MAPKAPK2) of the same compound?
The remaining binding at 1 µM was 94%.

What about the remaining binding at 1 µM (DYRK1B) of the same compound?
Its remaining binding at 1 µM is 92%.

What about the remaining binding at 1 µM (EPHB2) of the same compound?
Its remaining binding at 1 µM is 95%.

And the remaining binding at 1 µM (NDR2)?
The remaining binding at 1 µM was 91%.

What about the remaining binding at 1 µM (MST3) of the same compound?
Its remaining binding at 1 µM is 96%.
